This series in a line: clinical. The settings on record: human, in vivo.
`COc1cc([C@@H]2c3cc4c(cc3[C@@H](O[C@@H]3O[C@@H]5CO[C@@H](c6cccs6)O[C@H]5[C@H](O)[C@H]3O)[C@H]3COC(=O)[C@H]23)OCO4)cc(OC)c1O` [TENIPOSIDE] yielded a CL renal of 0.02 mL/min/kg.
Next, `CNS(=O)(=O)CCc1ccc2[nH]cc(C3CCN(C)CC3)c2c1`: 3.1 mL/min/kg; `Cc1ccsc1C(=CCCN1CCC[C@@H](C(=O)O)C1)c1sccc1C` [TIAGABINE]: 0.03 mL/min/kg; `Nc1ccc(S(=O)(=O)c2ccc(N)cc2)cc1` [DAPSONE]: 0.05 mL/min/kg.
`CNC(=C[N+](=O)[O-])NCCSCc1csc(CN(C)C)n1` [NIZATIDINE] came in with a CL renal of 7.35 mL/min/kg.
Next, `CN(C)CCC(c1ccc(Cl)cc1)c1ccccn1` (stereo not drawn) [CHLORPHENIRAMINE]: 0.43 mL/min/kg; `Cc1cccc(C)c1OCC(C)N` (stereo not drawn) [MEXILETINE]: 0.83 mL/min/kg; `Nc1ncnc2c1ncn2CCOCP(=O)(O)O` [ADEFOVIR]: 3.33 mL/min/kg.
Next, `O=P1(NCCCl)OCCCN1CCCl` (stereo not drawn) [IFOSFAMIDE]: 0.58 mL/min/kg.
For the compound `Nc1c2c(nc3ccccc13)CCCC2` [TACRINE], the CL renal turned out to be 1.68 mL/min/kg.
The same measure for `NS(=O)(=O)c1cc(C(=O)O)cc(N2CCCC2)c1Oc1ccccc1` [PIRETANIDE]: 1.05 mL/min/kg.
`C[C@H]1COc2c(N3CCN(C)CC3)c(F)cc3c(=O)c(C(=O)O)cn1c23.C[C@H]1COc2c(N3CCN(C)CC3)c(F)cc3c(=O)c(C(=O)O)cn1c23.O` [LEVOFLOXACIN] registered a CL renal of 1.41 mL/min/kg.
Next, `CC[C@H](C)C(=O)O[C@H]1C[C@H](O)C=C2C=C[C@H](C)[C@H](CC[C@@H](O)C[C@@H](O)CC(=O)O)[C@H]21` [PRAVASTATIN]: 6.3 mL/min/kg.
On to `C[C@H](Cn1cnc2c(N)ncnc21)OCP(=O)(O)O` [TENOFOVIR ANHYDROUS], for which the CL renal turned out to be 2.7 mL/min/kg.
The same measure for `CN1CCN(C(=O)OC2c3nccnc3C(=O)N2c2ccc(Cl)cn2)CC1` (stereo not drawn) [ZOPICLONE]: 0.1 mL/min/kg; for `C[C@@H](CN1CC(=O)NC(=O)C1)N1CC(=O)NC(=O)C1` [DEXRAZOXANE]: 1.4 mL/min/kg; for `CN[C@@H]1CCc2[nH]c3ccc(C(N)=O)cc3c2C1` [FROVATRIPTAN]: 1.04 mL/min/kg.
For the compound `Cc1cccc(Nc2ccncc2S(=O)(=O)NC(=O)NC(C)C)c1` [TORSEMIDE], the CL renal is 0.13 mL/min/kg.
The same measure for `CN[C@H](CC(C)C)C(=O)N[C@H]1C(=O)N[C@@H](CC(N)=O)C(=O)N[C@H]2C(=O)N[C@H]3C(=O)N[C@H](C(=O)N[C@H](C(=O)O)c4cc(O)cc(O)c4-c4cc3ccc4O)[C@H](O)c3ccc(c(Cl)c3)Oc3cc2cc(c3O[C@@H]2O[C@H](CO)[C@@H](O)[C@H](O)[C@H]2O[C@H]2C[C@](C)(N)[C@H](O)[C@H](C)O2)Oc2ccc(cc2Cl)[C@H]1O` [VANCOMYCIN]: 1.03 mL/min/kg.
Next, `CNCC[C@@H](Oc1ccccc1C)c1ccccc1` [ATOMOXETINE]: 0.28 mL/min/kg.
Next, `CN(C)C(=O)Oc1ccc[n+](C)c1` [PYRIDOSTIGMINE]: 7.2 mL/min/kg; `Cc1nnc2n1-c1ccc(Cl)cc1C(c1ccccc1)=NC2` [ALPRAZOLAM]: 0.15 mL/min/kg.
For `CC(C(=O)O)c1ccc(C(=O)c2cccs2)cc1` (stereo not drawn) [SUPROFEN], the CL renal turned out to be 0.04 mL/min/kg.
In turn, `CC1(C)S[C@@H]2[C@H](NC(=O)[C@H](NC(=O)N3CCNC3=O)c3ccccc3)C(=O)N2[C@H]1C(=O)O` [AZLOCILLIN] gave a CL renal of 1.67 mL/min/kg.
On to `COc1nc(C)nc(Cl)c1N=C1NCCN1` [MOXONIDINE], for which the CL renal is 7.5 mL/min/kg.
Compound `CCc1nn(CCCN2CCN(c3cccc(Cl)c3)CC2)c(=O)n1CCOc1ccccc1` [NEFAZODONE] showed a CL renal of 0.38 mL/min/kg.
For the compound `Cc1cccc(N2CC(CO)OC2=O)c1` (stereo not drawn) [TOLOXATONE], the CL renal stood at 0.11 mL/min/kg.
Next, `O=C(c1ccc(F)cc1)C1CCN(CCn2c(=O)[nH]c3ccccc3c2=O)CC1` [KETANSERIN]: 0.05 mL/min/kg; `Cc1cn([C@H]2C[C@H](N=[N+]=[N-])[C@@H](CO)O2)c(=O)[nH]c1=O` [ZIDOVUDINE]: 5.67 mL/min/kg; `CC(C)(O/N=C(\C(=O)N[C@@H]1C(=O)N2C(C(=O)[O-])=C(C[n+]3ccccc3)CS[C@H]12)c1csc(N)n1)C(=O)O` [CEFTAZIDIME]: 2.13 mL/min/kg.
The same measure for `Nc1ccn(C[C@@H](CO)OCP(=O)(O)O)c(=O)n1.O.O` [CIDOFOVIR]: 2.25 mL/min/kg; for `COc1cc(NCc2ccc3nc(N)nc(N)c3c2C)cc(OC)c1OC` [TRIMETREXATE]: 0.14 mL/min/kg.
`C[C@@H]1C[C@H]2[C@@H]3CCC4=CC(=O)C=C[C@]4(C)[C@@]3(F)[C@@H](O)C[C@]2(C)[C@@]1(O)C(=O)CO` [DEXAMETHASONE] gave a CL renal of 0.09 mL/min/kg.
For the compound `CCCCN1CCCCC1C(=O)Nc1c(C)cccc1C` (stereo not drawn) [BUPIVACAINE], the CL renal came out at 0.09 mL/min/kg.
Next, `CC(C)(C)NCC(O)c1cc(O)cc(O)c1` (stereo not drawn) [TERBUTALINE]: 2.2 mL/min/kg; `C=CCc1ccccc1OCC(O)CNC(C)C` (stereo not drawn) [ALPRENOLOL]: 0.6 mL/min/kg; `CN1CCC[C@H]1c1cccnc1` [NICOTINE]: 3 mL/min/kg.
The same measure for `CN/C(=N/CCSCc1nc[nH]c1C)NC#N` [CIMETIDINE]: 7.9 mL/min/kg; for `OCCN1CCN(CCCN2c3ccccc3Sc3ccc(Cl)cc32)CC1` [PERPHENAZINE]: 5 mL/min/kg; for `C[C@](N)(Cc1ccc(O)c(O)c1)C(=O)O` [METHYLDOPA]: 2.1 mL/min/kg.
`CN(Cc1cnc2nc(N)nc(N)c2n1)c1ccc(C(=O)N[C@@H](CCC(=O)O)C(=O)O)cc1` [METHOTREXATE] registered a CL renal of 1.7 mL/min/kg.
Next, `CO/N=C(\C(=O)N[C@@H]1C(=O)N2C(C(=O)O)=C(CSc3nc(=O)c(=O)[nH]n3C)CS[C@H]12)c1csc(N)n1` [CEFTRIAXONE]: 0.12 mL/min/kg.
As for `O=C(c1ccccc1)c1ccc2n1CCC2C(=O)O` (stereo not drawn) [KETOROLAC], the CL renal amounted to 0.2 mL/min/kg.
Next, `CC(=O)Nc1c(I)c(C(=O)O)c(I)c(N(C)C(C)=O)c1I` [METRIZOIC ACID]: 2.53 mL/min/kg; `CCC[C@@H]1C[C@@H](C(=O)N[C@@H]([C@H]2O[C@H](SC)[C@H](O)[C@@H](O)[C@H]2O)[C@H](C)Cl)N(C)C1` [CLINDAMYCIN]: 0.62 mL/min/kg; `NCCCC[C@H](N[C@@H](CCc1ccccc1)C(=O)O)C(=O)N1CCC[C@H]1C(=O)O` [LISINOPRIL ANHYDROUS]: 1.2 mL/min/kg.
The same measure for `Cn1nnnc1SCC1=C(C(=O)O)N2C(=O)[C@@H](NC(=O)[C@H](O)c3ccccc3)[C@H]2SC1` [CEFAMANDOLE]: 2.7 mL/min/kg; for `CCCCCN(CCCOC)C(=O)[C@@H](CCC(=O)O)NC(=O)c1ccc(Cl)c(Cl)c1` [DEXLOXIGLUMIDE]: 0.41 mL/min/kg.
Consider `Cc1ncc([N+](=O)[O-])n1CCO` [METRONIDAZOLE], for which the CL renal stood at 0.19 mL/min/kg.
On to `CN(C)C(=N)N=C(N)N` [METFORMIN], for which the CL renal came to 7.4 mL/min/kg.
The same measure for `CO[C@@]1(NC(=O)C(C(=O)O)c2ccc(O)cc2)C(=O)N2C(C(=O)O)=C(CSc3nnnn3C)CO[C@@H]21` (stereo partly drawn) [MOXALACTAM]: 0.63 mL/min/kg.
As to `CC[C@H]1OC(=O)[C@H](C)C(=O)[C@H](C)[C@@H](O[C@@H]2O[C@H](C)C[C@H](N(C)C)[C@H]2O)[C@](C)(OC)C[C@@H](C)C(=O)[C@H](C)[C@H]2N(CCCCn3cnc(-c4cccnc4)c3)C(=O)O[C@]12C` [TELITHROMYCIN], the CL renal is 3.14 mL/min/kg.
Next, `CC1(C)S[C@@H]2[C@H](NC(=O)[C@H](N)c3ccccc3)C(=O)N2[C@H]1C(=O)O` [AMPICILLIN]: 1.2 mL/min/kg; `COc1ccc2cc1Oc1cc3c(cc1OC)CC[N+](C)(C)[C@H]3Cc1ccc(cc1)Oc1c(OC)c(OC)cc3c1[C@@H](C2)[N+](C)(C)CC3.[I-].[I-]` [METOCURINE IODIDE]: 0.52 mL/min/kg; `CO/N=C(\C(=O)N[C@@H]1C(=O)N2C(C(=O)O)=C(COC(C)=O)CS[C@H]12)c1csc(N)n1` [CEFOTAXIME]: 1.37 mL/min/kg.
Regarding `NCC1(CC(=O)O)CCCCC1` [GABAPENTIN], the CL renal turned out to be 1.7 mL/min/kg.
With `CC(C)(C)NC(=O)[C@H]1CC[C@H]2[C@@H]3CC[C@H]4NC(=O)C=C[C@]4(C)[C@H]3CC[C@]12C` [FINASTERIDE], the CL renal came out at 0.02 mL/min/kg.
The same measure for `Nc1ccn([C@@H]2O[C@H](CO)[C@@H](O)C2(F)F)c(=O)n1` [GEMCITABINE]: 3.2 mL/min/kg.
For `CCCN(CCC)S(=O)(=O)c1ccc(C(=O)O)cc1` [PROBENECID], the CL renal was 0.03 mL/min/kg.
The same measure for `CN1C2CCCC1CC(NC(=O)c1nn(C)c3ccccc13)C2` (stereo not drawn) [GRANISETRON]: 1 mL/min/kg; for `CC1(C)S[C@@H]2[C@H](NC(=O)C(c3ccccc3)S(=O)(=O)O)C(=O)N2[C@H]1C(=O)O` (stereo partly drawn) [SULBENICILLIN]: 1.3 mL/min/kg; for `CCN(CC)CCNC(=O)c1cc(Br)c(N)cc1OC` [BROMOPRIDE]: 1.4 mL/min/kg.
The same measure for `CN1Cc2c(N)cccc2C(c2ccccc2)C1` (stereo not drawn) [NOMIFENSINE]: 12.5 mL/min/kg; for `CC(=O)[C@]1(O)Cc2c(O)c3c(c(O)c2[C@@H](O[C@H]2C[C@H](N)[C@H](O)[C@H](C)O2)C1)C(=O)c1ccccc1C3=O` [IDARUBICIN]: 1.8 mL/min/kg.
Next, `COC(=O)[C@H]1[C@@H](OC(=O)c2ccccc2)C[C@@H]2CC[C@H]1N2C` [COCAINE]: 0.4 mL/min/kg; `CN(C)c1cc(NC(=O)CNC(C)(C)C)c(O)c2c1C[C@H]1C[C@H]3[C@H](N(C)C)C(O)=C(C(N)=O)C(=O)[C@@]3(O)C(O)=C1C2=O` [TIGECYCLINE]: 0.57 mL/min/kg.
Compound `CN1C(=O)NC(=O)C(C)(C2=CCCCC2)C1=O` (stereo not drawn) [HEXOBARBITAL] registered a CL renal of 0.02 mL/min/kg.
Next, `CCN(CC)CCNC(=O)c1ccc(NS(C)(=O)=O)cc1` [SEMATILIDE]: 3.5 mL/min/kg.
The same measure for `CCOc1ccccc1OC(c1ccccc1)C1CNCCO1` (stereo not drawn) [REBOXETINE]: 0.04 mL/min/kg; for `COc1ccc(C(CN(C)C)C2(O)CCCCC2)cc1` (stereo not drawn) [VENLAFAXINE]: 0.64 mL/min/kg; for `Cn1c(=O)c2c(ncn2C)n(C)c1=O` [CAFFEINE]: 0.02 mL/min/kg.
The same measure for `CC[C@]1(O)C[C@@H]2CN(CCc3c([nH]c4ccccc34)[C@@](C(=O)OC)(c3cc4c(cc3OC)N(C)[C@H]3[C@@](O)(C(=O)OC)[C@H](OC(C)=O)[C@]5(CC)C=CCN6CC[C@]43[C@@H]65)C2)C1` [VINBLASTINE]: 2.64 mL/min/kg; for `CO/N=C(\C(=O)N[C@@H]1C(=O)N2C(C(=O)O)=C(C)CS[C@H]12)c1csc(N)n1`: 1.5 mL/min/kg.

For the origin of these results see ChEMBL document CHEMBL1151930, “Physicochemical determinants of human renal clearance” (J Med Chem, 2009).
